Experimental data: publication doi:10.1101/2020.02.18.954925v1 (biorxiv, 2020)

Target: Lpg2603 10-C (Legionella pneumophila, UniProt Q5ZSB6)
Assay: biochemical

Lpg2603 10-C, sequence (Q5ZSB6 10-434 limits assumed): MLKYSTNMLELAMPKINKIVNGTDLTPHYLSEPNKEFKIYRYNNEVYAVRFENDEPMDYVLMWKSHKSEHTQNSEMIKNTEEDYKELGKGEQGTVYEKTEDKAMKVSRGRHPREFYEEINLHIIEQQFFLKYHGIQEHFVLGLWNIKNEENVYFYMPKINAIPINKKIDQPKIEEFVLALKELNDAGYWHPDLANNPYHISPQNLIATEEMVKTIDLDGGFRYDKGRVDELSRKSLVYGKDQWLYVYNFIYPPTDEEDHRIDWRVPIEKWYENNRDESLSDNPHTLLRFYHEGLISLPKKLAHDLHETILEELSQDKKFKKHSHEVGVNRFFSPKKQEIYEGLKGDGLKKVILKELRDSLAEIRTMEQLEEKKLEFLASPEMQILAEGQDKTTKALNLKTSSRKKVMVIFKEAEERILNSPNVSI

O=P(O)(O)O[C@H]1[C@H](OP(=O)(O)O)[C@@H](OP(=O)(O)O)[C@H](OP(=O)(O)O)[C@@H](OP(=O)(O)O)[C@H]1OP(=O)(O)O [inositol hexakisphosphate]
Kd: ~315 µM
